# Experimental data as given in patent publication US9211314B2, “Treatment selection for lung cancer patients using mass spectrum of blood-based sample” (Biodesix, Inc., priority 2014, dated 2015).
# Values joined by “and” are separate entries in the source; they are usually repeats but may differ in a detail not shown here. Identical values can stand only once.
# Tests used:
# [1] = system: advanced NSCLC patients; experiment: Time-to-event outcomes (OS, PFS) of development set patients (Italian A, B, C cohorts) grouped by VS2.0/VS1.0 classification; type: in vivo, human; settings: for Cox HR (95% CI), OS / Cox HR (95% CI), PFS / Median OS / Median PFS: development set
# From the text: The following cohorts of patients had samples available for this project: sample sets known as “Italian A”, “Italian B”, “Italian C.” Italian A and B were cohorts of patients with advanced NSCLC treated with gefitinib used in the development and validation of the original VeriStrat test. See generally, U.S. Pat. No. 7,736,905; Taguchi et al., JNCI 99: 838-846 (2007). Italian C was a cohort of patients treated in advanced line with a variety of chemotherapy regimens.
# The VS2.0 final classifier was applied to all samples in the development set. Note that this includes samples included in training of the classifier. The VS2.0 classifications of the development set samples are given in Appendix E. Notice that all samples with a VS1.0 classification of Poor were assigned a label of Early. OS and PFS are plotted for patients in the development set grouped according to: Late, Unknown and Early (excluding VS1.0 Poor) and VS 1.0 Poor in FIG. 6. Note that several patients in the Italian C cohort had OS data, but no PFS data. FIG. 6 is a plot of time-to-event outcomes of patients in the development set with labels assigned from development set spectra; FIG. 6A: OS for gefitinib-treated patients, FIG. 6B: PFS for gefitinib-treated patients, FIG. 6C: OS for chemotherapy-treated patients and FIG. 6D PFS for chemotherapy-treated patients.
# [2] = system: advanced NSCLC patients; experiment: PROSE study: second-line erlotinib versus chemotherapy, OS and PFS by VS2.0/VS1.0 classification; type: in vivo, human
# Protocol: The final CMC/D classifier described above was subject to a test on mass spectra obtained from available samples from the PROSE study under a validation protocol. The final CMC/D classifier was deemed fixed prior to this validation protocol. Mass spectra were provided to analysts blinded to their clinical data. The spectra were analyzed as described above and the resulting classifications (Appendix G) were generated. An un-blinding key was then provided and a statistical analysis was carried out.
# For patient 01—044 and patient 01—080, two samples were available. […] No samples were available for patient 01—050, patient 03—006, patient 06—004, patient 06—021, patient 11—043, patient 11—048, and patient 12—014.
# [3] = system: advanced NSCLC patients; settings: PROSE, patients classified as VSP (VS1.0); cited from earlier work
# [4] = comparison Early/Unk vs Late within treatment
# [5] = comparison Poor vs Early/Unk within treatment
# [6] = comparison Poor vs Late within treatment
# [7] = group Early/Unknown (excluding VS1.0 Poor)
# [8] = group Early/Unknown (VS1.0 Good)
compound,measurement,setting,value
"COc1cc2ncnc(Nc3ccc(F)c(Cl)c3)c2cc1OCCCN1CCOCC1 [GEF, gefitinib]","Cox HR (95% CI), OS",[1]; [4],0.59 (0.37-0.94)
same,"Cox HR (95% CI), PFS",[1]; [4],0.58 (0.37-0.91)
same,"Cox HR (95% CI), OS",[1]; [5],0.49 (0.33-0.75)
same,"Cox HR (95% CI), PFS",[1]; [5],0.64 (0.42-0.95)
same,"Cox HR (95% CI), OS",[1]; [6],0.30 (0.18-0.49)
same,"Cox HR (95% CI), PFS",[1]; [6],0.36 (0.22-0.60)
same,Median OS,[1]; [7],243 days
same,Median PFS,[1]; [7],92 days
same,Median OS,[1]; group Late,457 days
same,Median PFS,[1]; group Late,208 days
same,Median OS,[1]; group VS1.0 Poor,96.5 days
same,Median PFS,[1]; group VS1.0 Poor,61.5 days
same,"Benefit by overall survival curves, gefitinib versus chemotherapy","[1]; patients whose sample tested Late, FIGS. 6A and 6C",greater benefit from gefitinib than chemotherapy
"C#Cc1cccc(Nc2ncnc3cc(OCCOC)c(OCCOC)cc23)c1 [ERL, erlotinib]",Median OS,[2]; [8],9.6 months
same,Median PFS,[2]; [8],2.3 months
same,Median OS,[2]; group Late,17.1 months
same,Median PFS,[2]; group Late,3.9 months
same,Median OS,"[2]; group Late, listed as erlotinib",17.1 months and 17 months
same,Median OS,[2]; group VS1.0 Poor,3.1 months
same,Median PFS,[2]; group VS1.0 Poor,1.7 months
same,"HR (95% CI), OS, Treatment: CT vs ERL",[2]; multivariate analysis of VS1.0 Good population,1.12 (0.85-1.65)
same,"Survival, erlotinib versus chemotherapy",[3],better survival on chemotherapy versus erlotinib
